From the supplement of paper PMC11061612

Key:
[1] = tested on: GR-ST (B-Lymphoblastic Leukemia); assay: Bliss excess, mean over the matrix (fraction); higher = more synergy
Procedure, shortened: (§1)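 Bliss excess equals the observed combination effect minus the expected value EA + EB − EA·EB, where EA and EB are the effects of each agent alone. Combination Emax is the second-highest inhibition within the matrix. Inhibition was scaled from CellTiter-Glo 2.0 luminescence, with 0 set by vehicle wells and 1 by blank wells, after 72 hours of two-drug dosing of cells plated in 1536-well plates.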

[2] = tested on: SW837 (Colorectal Carcinoma); assay: as above
Procedure, shortened: as §1

[3] = tested on: BFTC-905 (Bladder Carcinoma); assay: as above
Procedure, shortened: as §1

[4] = tested on: L-540 (Hodgkin's Lymphoma); assay: as above
Procedure, shortened: as §1

[5] = tested on: MKN28 (Gastric Carcinoma); assay: as above
Procedure, shortened: as §1

ES8 (Ewing's Sarcoma) [6] = assay: as above
Procedure, shortened: as §1

[7] = tested on: NCI-H1792 (Lung Adenocarcinoma); assay: as above
Procedure, shortened: as §1

WIL2-NS (Non-Cancerous) [8] = assay: as above
Procedure, shortened: as §1

[9] = tested on: SR (Other Blood Carcinomas); assay: as above
Procedure, shortened: as §1

ES1 (Ewing's Sarcoma) [10] = assay: as above
Procedure, shortened: as §1

[11] = tested on: CAMA-1 (Breast Carcinoma); assay: as above
Procedure, shortened: as §1

[12] = tested on: BL-41 (Burkitt's Lymphoma); assay: as above
Procedure, shortened: as §1

[13] = tested on: DND-41 (T-Lymphoblastic Leukemia); assay: as above
Procedure, shortened: as §1

NCI-H2818 (Mesothelioma) [14] = assay: as above
Procedure, shortened: as §1

WM-115 (Melanoma) [15] = assay: as above
Procedure, shortened: as §1

[16] = tested on: SW1417 (Colorectal Carcinoma); assay: as above
Procedure, shortened: as §1

[17] = tested on: K-562 (Chronic Myelogenous Leukemia); assay: as above
Procedure, shortened: as §1

[18] = tested on: GR-ST (B-Lymphoblastic Leukemia); assay: combination Emax (second highest fraction inhibited in the dose matrix, 72 h); higher = more inhibition; extreme values may be limits of the assay
Procedure, shortened: as §1

[19] = tested on: SW837 (Colorectal Carcinoma); assay: as above
Procedure, shortened: as §1

[20] = tested on: BFTC-905 (Bladder Carcinoma); assay: as above
Procedure, shortened: as §1

[21] = tested on: L-540 (Hodgkin's Lymphoma); assay: as above
Procedure, shortened: as §1

[22] = tested on: MKN28 (Gastric Carcinoma); assay: as above
Procedure, shortened: as §1

ES8 (Ewing's Sarcoma) [23] = assay: as above
Procedure, shortened: as §1

[24] = tested on: NCI-H1792 (Lung Adenocarcinoma); assay: as above
Procedure, shortened: as §1

WIL2-NS (Non-Cancerous) [25] = assay: as above
Procedure, shortened: as §1

[26] = tested on: SR (Other Blood Carcinomas); assay: as above
Procedure, shortened: as §1

ES1 (Ewing's Sarcoma) [27] = assay: as above
Procedure, shortened: as §1

[28] = tested on: CAMA-1 (Breast Carcinoma); assay: as above
Procedure, shortened: as §1

[29] = tested on: BL-41 (Burkitt's Lymphoma); assay: as above
Procedure, shortened: as §1

[30] = tested on: DND-41 (T-Lymphoblastic Leukemia); assay: as above
Procedure, shortened: as §1

NCI-H2818 (Mesothelioma) [31] = assay: as above
Procedure, shortened: as §1

WM-115 (Melanoma) [32] = assay: as above
Procedure, shortened: as §1

[33] = tested on: SW1417 (Colorectal Carcinoma); assay: as above
Procedure, shortened: as §1

[34] = tested on: K-562 (Chronic Myelogenous Leukemia); assay: as above
Procedure, shortened: as §1

Compound: Cc1c2c(nn1C)CSCc1cc(n(C)n1)CSc1cc(c3ccccc3c1)OCCCc1c(C(=O)O)n(C)c3c-2c(Cl)ccc13 [AZD5991] + Nc1ccn([C@@H]2O[C@H](CO)[C@@H](O)C2(F)F)c(=O)n1 [Gemcitabine] (first compound max 1 µM, 7x7, partner max 0.3 µM)
- Bliss excess [1]: -0.0516
- Bliss excess [2]: -0.0606
- Bliss excess [3]: -0.0194
- Bliss excess [4]: 0.0162
- Bliss excess [5]: -0.0367
- Bliss excess (ES8 (Ewing's Sarcoma) [6]): -0.0121
- Bliss excess [7]: -0.0308
- Bliss excess (WIL2-NS (Non-Cancerous) [8]): -0.0263
- Bliss excess [9]: 0.0073
- Bliss excess (ES1 (Ewing's Sarcoma) [10]): 0.0102
- Bliss excess [11]: 0.133
- Bliss excess [12]: -0.0263
- Bliss excess [13]: 0.021
- Bliss excess (NCI-H2818 (Mesothelioma) [14]): -0.0771
- Bliss excess (WM-115 (Melanoma) [15]): -0.0572
- Bliss excess [16]: 0.0394
- Bliss excess [17]: 0.0045
- combination Emax [18]: 0.791
- combination Emax [19]: 0.273
- combination Emax [20]: 0.909
- combination Emax [21]: 1
- combination Emax [22]: 0.161
- combination Emax (ES8 (Ewing's Sarcoma) [23]): 1
- combination Emax [24]: 0.774
- combination Emax (WIL2-NS (Non-Cancerous) [25]): 0.942
- combination Emax [26]: 0.991
- combination Emax (ES1 (Ewing's Sarcoma) [27]): 1
- combination Emax [28]: 0.942
- combination Emax [29]: 1
- combination Emax [30]: 0.848
- combination Emax (NCI-H2818 (Mesothelioma) [31]): 0.358
- combination Emax (WM-115 (Melanoma) [32]): 0.431
- combination Emax [33]: 0.332
- combination Emax [34]: 0.222

Compound: C[C@@H]1COCCN1c1cc(C2([S@](C)(=N)=O)CC2)nc(-c2ccnc3[nH]ccc23)n1 [AZD6738] + C1CC(C1)(C(=O)[O-])C(=O)[O-].N.N.[Pt+2] [Carboplatin] (first compound max 10 µM, 7x7, partner max 10 µM)
- Bliss excess [1]: -0.0241
- Bliss excess [2]: -0.0837
- Bliss excess [3]: 0.0337
- Bliss excess [4]: -0.0267
- Bliss excess [5]: -0.0242
- Bliss excess (ES8 (Ewing's Sarcoma) [6]): 0.0982
- Bliss excess [7]: -0.0303
- Bliss excess (WIL2-NS (Non-Cancerous) [8]): -0.0241
- Bliss excess [9]: -0.0383
- Bliss excess (ES1 (Ewing's Sarcoma) [10]): -0.0078
- Bliss excess [11]: -0.0454
- Bliss excess [12]: -0.0271
- Bliss excess [13]: -0.0146
- Bliss excess (NCI-H2818 (Mesothelioma) [14]): -0.0286
- Bliss excess (WM-115 (Melanoma) [15]): -0.0607
- Bliss excess [16]: -0.0074
- Bliss excess [17]: -0.031
- combination Emax [18]: 0.747
- combination Emax [19]: 0.402
- combination Emax [20]: 0.723
- combination Emax [21]: 0.894
- combination Emax [22]: 0.327
- combination Emax (ES8 (Ewing's Sarcoma) [23]): 0.925
- combination Emax [24]: 0.733
- combination Emax (WIL2-NS (Non-Cancerous) [25]): 0.922
- combination Emax [26]: 0.879
- combination Emax (ES1 (Ewing's Sarcoma) [27]): 0.917
- combination Emax [28]: 0.381
- combination Emax [29]: 0.974
- combination Emax [30]: 0.919
- combination Emax (NCI-H2818 (Mesothelioma) [31]): 0.378
- combination Emax (WM-115 (Melanoma) [32]): 0.425
- combination Emax [33]: 0.375
- combination Emax [34]: 0.847

Compound: C[C@@H]1COCCN1c1cc(C2([S@](C)(=N)=O)CC2)nc(-c2ccnc3[nH]ccc23)n1 [AZD6738] + Nc1ccn([C@@H]2O[C@H](CO)[C@@H](O)C2(F)F)c(=O)n1 [Gemcitabine] (first compound max 10 µM, 7x7, partner max 0.3 µM)
- Bliss excess [1]: 0.0085
- Bliss excess [2]: 0.065
- Bliss excess [3]: 0.0387
- Bliss excess [4]: -0.0107
- Bliss excess [5]: 0.0907
- Bliss excess (ES8 (Ewing's Sarcoma) [6]): 0.0265
- Bliss excess [7]: 0.0362
- Bliss excess (WIL2-NS (Non-Cancerous) [8]): 0.0093
- Bliss excess [9]: 0.0532
- Bliss excess (ES1 (Ewing's Sarcoma) [10]): 0.0203
- Bliss excess [11]: 0.0878
- Bliss excess [12]: -0.0007
- Bliss excess [13]: 0.0586
- Bliss excess (NCI-H2818 (Mesothelioma) [14]): 0.0515
- Bliss excess (WM-115 (Melanoma) [15]): 0.0268
- Bliss excess [16]: 0.0802
- Bliss excess [17]: 0.0537
- combination Emax [18]: 0.889
- combination Emax [19]: 0.779
- combination Emax [20]: 0.915
- combination Emax [21]: 0.963
- combination Emax [22]: 0.664
- combination Emax (ES8 (Ewing's Sarcoma) [23]): 1
- combination Emax [24]: 0.951
- combination Emax (WIL2-NS (Non-Cancerous) [25]): 0.985
- combination Emax [26]: 1
- combination Emax (ES1 (Ewing's Sarcoma) [27]): 1
- combination Emax [28]: 0.587
- combination Emax [29]: 1
- combination Emax [30]: 0.921
- combination Emax (NCI-H2818 (Mesothelioma) [31]): 0.545
- combination Emax (WM-115 (Melanoma) [32]): 0.659
- combination Emax [33]: 0.77
- combination Emax [34]: 0.916

Compound: Cc1cc2ncnn2cc1Nc1ncc2c(n1)n(C1CCOCC1)c(=O)n2C [AZD7648] + COc1cc([C@@H]2c3cc4c(cc3[C@@H](O[C@@H]3O[C@@H]5CO[C@@H](C)O[C@H]5[C@H](O)[C@H]3O)[C@H]3COC(=O)[C@H]23)OCO4)cc(OC)c1O [Etoposide] (first compound max 10 µM, 7x7, partner max 10 µM)
- Bliss excess [1]: 0.0727
- Bliss excess [2]: 0.0591
- Bliss excess [3]: 0.152
- Bliss excess [4]: 0.108
- Bliss excess [5]: 0.0435
- Bliss excess (ES8 (Ewing's Sarcoma) [6]): 0.165
- Bliss excess [7]: 0.0565
- Bliss excess (WIL2-NS (Non-Cancerous) [8]): 0.0553
- Bliss excess [9]: 0.193
- Bliss excess (ES1 (Ewing's Sarcoma) [10]): 0.109
- Bliss excess [11]: -0.012
- Bliss excess [12]: 0.0647
- Bliss excess [13]: 0.115
- Bliss excess (NCI-H2818 (Mesothelioma) [14]): 0.0361
- Bliss excess (WM-115 (Melanoma) [15]): 0.0071
- Bliss excess [16]: 0.0288
- Bliss excess [17]: 0.114
- combination Emax [18]: 0.703
- combination Emax [19]: 0.358
- combination Emax [20]: 0.903
- combination Emax [21]: 0.903
- combination Emax [22]: 0.56
- combination Emax (ES8 (Ewing's Sarcoma) [23]): 0.994
- combination Emax [24]: 0.708
- combination Emax (WIL2-NS (Non-Cancerous) [25]): 0.981
- combination Emax [26]: 1
- combination Emax (ES1 (Ewing's Sarcoma) [27]): 1
- combination Emax [28]: 0.463
- combination Emax [29]: 0.998
- combination Emax [30]: 0.967
- combination Emax (NCI-H2818 (Mesothelioma) [31]): 0.617
- combination Emax (WM-115 (Melanoma) [32]): 0.481
- combination Emax [33]: 0.382
- combination Emax [34]: 0.872
